Test results as given in patent publication US6355799B1, “Substituted benzene compounds, process for their preparation, and herbicidal and defoliant compositions containing them” (ISK Americas Incorporated, priority 1997, dated 2002).

Tests used:
Assay type in all cases: in vivo
[1] = tested on: redroot pigweed (Amaranthus retroflexus, AMARE); experiment: Pre-emerge test, greenhouse herbicide activity screening; conditions: pre-emerge, 14 days after application
Summary of the method: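 Herbicidal damage is scored 0 (none) to 100 (complete plant death) two weeks after a simulated field spray. Rates span 15–1000 g ai/ha, delivered in acetone at 187 l/ha. For post-emergence treatments, plants have 2–3 leaves and the spray carries 0.25% v/v non-ionic surfactant.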

[2] = tested on: common ragweed (Ambrosia artemisizfolia L., AMBEL); experiment: as above; conditions: pre-emerge, 14 days after application
Summary of the method: (§1)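 Plants grown in 10 cm pots of sandy loam mix received acetone-dissolved compounds through a moving flat-fan nozzle. Doses ranged from 15 to 1000 g ai/ha. Pre-emerge pots were seeded one day earlier, post-emerge pots 8–21 days earlier. Fourteen days on, each pot was graded 0–100 for damage.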

[3] = tested on: johnsongrass (Sorghum halepense, SORHA); experiment: as above; conditions: pre-emerge, 14 days after application
Summary of the method: as §1

[4] = tested on: velvetleaf (Abutilon theophrasti, ABUTH); experiment: as above; conditions: pre-emerge, 14 days after application
Summary of the method: as §1

[5] = tested on: green foxtail (Setaria viridis, SETVI); experiment: as above; conditions: pre-emerge, 14 days after application
Summary of the method: as §1

[6] = tested on: barnyardgrass (Echinochloa crus-galli, ECHCG); experiment: as above; conditions: pre-emerge, 14 days after application
Summary of the method: as §1

[7] = tested on: sicklepod (Cassia obtusifolia, CASOB); experiment: as above; conditions: pre-emerge, 14 days after application
Summary of the method: as §1

[8] = tested on: ivyleaf morningglory (Ipomoea hederacea, IPOHE); experiment: as above; conditions: pre-emerge, 14 days after application
Summary of the method: as §1

[9] = tested on: lambsquarters (Chenopodium album, CHEAL); experiment: as above; conditions: pre-emerge, 14 days after application
Summary of the method: as §1

[10] = tested on: large crabgrass (Digitaria sanguinalis, DIGSA); experiment: as above; conditions: pre-emerge, 14 days after application
Summary of the method: as §1

[11] = tested on: field corn (Zea mays L., var. Dekalb 535, CORN); experiment: Pre-emerge test, crop safety; conditions: pre-emerge, 14 days after application; for phytotoxicity rating CORN (crop damage): scale 0-100; for phytotoxicity rating CORN: rating scale 0-100
Summary of the method: (§2)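 Rating: 0–100 visual injury, 14 DAA. Application: acetone, 187 l/ha, 15–1000 g ai/ha, flat-fan track sprayer with nozzle 40–45 cm above soil or canopy. Post-emerge runs used 0.25% v/v surfactant on 2–3 leaf plants.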

[12] = tested on: upland rice (Oryza sp., var. Tebonnet, RICE); experiment: Pre-emerge test, crop safety; conditions: pre-emerge, 14 days after application; for phytotoxicity rating RICE (crop damage): scale 0-100; for phytotoxicity rating RICE: rating scale 0-100
Summary of the method: as §2

[13] = tested on: field corn (Zea mays L., var. Dekalb 535, CORN); experiment: Post-emerge test, crop safety; conditions: post-emerge, 14 days after application, rating scale 0-100
Summary of the method: (§3)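 Each test used a mechanized track sprayer delivering 187 l/ha of acetone solution at 15–1000 g ai/ha. Post-emerge foliage at 2–3 leaves was treated with added 0.25% v/v non-ionic surfactant and bottom-watered only. Injury was assessed on day 14, where 100 means total kill.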

[14] = tested on: upland rice (Oryza sp., var. Tebonnet, RICE); experiment: Post-emerge test, crop safety; conditions: post-emerge, 14 days after application, rating scale 0-100
Summary of the method: as §3

[15] = tested on: redroot pigweed (Amaranthus retroflexus, AMARE); experiment: Post-emerge test, greenhouse herbicide activity screening; conditions: post-emerge, 14 days after application
Summary of the method: (§4)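 Fourteen days after spraying, crop and weed injury was graded visually from 0, no effect, to 100, every plant dead. Test substances were dissolved in acetone and applied at 15–1000 g ai/ha with a flat-fan nozzle. Application was either pre-emergence, one day after sowing, or post-emergence at the 2–3 leaf stage.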

[16] = tested on: common ragweed (Ambrosia artemisizfolia L., AMBEL); experiment: as above; conditions: post-emerge, 14 days after application, rating scale 0-100
Summary of the method: as §4

[17] = tested on: velvetleaf (Abutilon theophrasti, ABUTH); experiment: as above; conditions: post-emerge, 14 days after application, rating scale 0-100
Summary of the method: as §4

[18] = tested on: green foxtail (Setaria viridis, SETVI); experiment: as above; conditions: post-emerge, 14 days after application, rating scale 0-100
Summary of the method: as §4

[19] = tested on: barnyardgrass (Echinochloa crus-galli, ECHCG); experiment: as above; conditions: post-emerge, 14 days after application, rating scale 0-100
Summary of the method: as §4

[20] = tested on: sicklepod (Cassia obtusifolia, CASOB); experiment: as above; conditions: post-emerge, 14 days after application, rating scale 0-100
Summary of the method: as §4

[21] = tested on: ivyleaf morningglory (Ipomoea hederacea, IPOHE); experiment: as above; conditions: post-emerge, 14 days after application, rating scale 0-100
Summary of the method: as §4

[22] = tested on: lambsquarters (Chenopodium album, CHEAL); experiment: as above; conditions: post-emerge, 14 days after application, rating scale 0-100
Summary of the method: as §4

[23] = tested on: large crabgrass (Digitaria sanguinalis, DIGSA); experiment: as above; conditions: post-emerge, 14 days after application, rating scale 0-100
Summary of the method: as §4

[24] = 250 g ai/ha, rating scale 0-100

Cn1c(C(F)(F)F)cc(=O)n(-c2c(F)cc(Cl)cc2NC2CC2)c1=O [2-147]
phytotoxicity rating AMARE ([1]; 63 g ai/ha, scale 0-100): 100
phytotoxicity rating AMARE ([1]; 250 g ai/ha, scale 0-100): 100
phytotoxicity rating AMBEL ([2]; 63 g ai/ha, scale 0-100): 80
phytotoxicity rating AMBEL ([2]; 250 g ai/ha, scale 0-100): 100
phytotoxicity rating SORHA ([3]; 63 g ai/ha, scale 0-100): 90
phytotoxicity rating SORHA ([3]; 250 g ai/ha, scale 0-100): 100
phytotoxicity rating ABUTH ([4]; 63 g ai/ha, scale 0-100): 100
phytotoxicity rating ABUTH ([4]; 250 g ai/ha, scale 0-100): 100
phytotoxicity rating SETVI ([5]; 63 g ai/ha, scale 0-100): 100
phytotoxicity rating SETVI ([5]; 250 g ai/ha, scale 0-100): 100
phytotoxicity rating ECHCG ([6]; 63 g ai/ha, scale 0-100): 90
phytotoxicity rating ECHCG ([6]; 250 g ai/ha, scale 0-100): 100
phytotoxicity rating CASOB ([7]; 63 g ai/ha, scale 0-100): 40
phytotoxicity rating CASOB ([7]; 250 g ai/ha, scale 0-100): 100
phytotoxicity rating IPOHE ([8]; 63 g ai/ha, scale 0-100): 80
phytotoxicity rating IPOHE ([8]; 250 g ai/ha, scale 0-100): 100
phytotoxicity rating CHEAL ([9]; 63 g ai/ha, scale 0-100): 100
phytotoxicity rating CHEAL ([9]; 250 g ai/ha, scale 0-100): 100
phytotoxicity rating DIGSA ([10]; 63 g ai/ha, scale 0-100): 90
phytotoxicity rating DIGSA ([10]; 250 g ai/ha, scale 0-100): 100
phytotoxicity rating CORN (crop damage) ([11]; 63 g ai/ha): 100
phytotoxicity rating CORN (crop damage) ([11]; 250 g ai/ha): 100
phytotoxicity rating RICE (crop damage) ([12]; 63 g ai/ha): 99
phytotoxicity rating RICE (crop damage) ([12]; 250 g ai/ha): 100
CORN phytotoxicity rating (crop damage) ([13]; 63 g ai/ha): 15
CORN phytotoxicity rating (crop damage) ([13]; 250 g ai/ha): 90
RICE phytotoxicity rating (crop damage) ([14]; 63 g ai/ha): 50
RICE phytotoxicity rating (crop damage) ([14]; 250 g ai/ha): 75
AMARE phytotoxicity rating ([15]; 63 g ai/ha, rating scale 0-100): 100
AMARE phytotoxicity rating [15, 24]: 100
AMBEL phytotoxicity rating ([16]; 63 g ai/ha): 95
AMBEL phytotoxicity rating ([16]; 250 g ai/ha): 100
ABUTH phytotoxicity rating ([17]; 63 g ai/ha): 100
ABUTH phytotoxicity rating ([17]; 250 g ai/ha): 100
SETVI phytotoxicity rating ([18]; 63 g ai/ha): 20
SETVI phytotoxicity rating ([18]; 250 g ai/ha): 40
ECHCG phytotoxicity rating ([19]; 63 g ai/ha): 10
ECHCG phytotoxicity rating ([19]; 250 g ai/ha): 50
CASOB phytotoxicity rating ([20]; 63 g ai/ha): 80
CASOB phytotoxicity rating ([20]; 250 g ai/ha): 95
IPOHE phytotoxicity rating ([21]; 63 g ai/ha): 100
IPOHE phytotoxicity rating ([21]; 250 g ai/ha): 100
CHEAL phytotoxicity rating ([22]; 63 g ai/ha): 100
CHEAL phytotoxicity rating ([22]; 250 g ai/ha): 100
DIGSA phytotoxicity rating ([23]; 63 g ai/ha): 20
DIGSA phytotoxicity rating ([23]; 250 g ai/ha): 50

CCOc1c(Cl)cc(F)c(-n2c(=O)cc(C(F)(F)F)n(C)c2=O)c1Cl [14-62]
phytotoxicity rating AMARE ([1]; 63 g ai/ha, rating scale 0-100): 40
phytotoxicity rating AMARE [1, 24]: 100
phytotoxicity rating AMBEL ([2]; 63 g ai/ha, rating scale 0-100): 0
phytotoxicity rating AMBEL [2, 24]: 30
phytotoxicity rating SORHA ([3]; 63 g ai/ha, rating scale 0-100): 0
phytotoxicity rating SORHA [3, 24]: 60
phytotoxicity rating ABUTH ([4]; 63 g ai/ha, rating scale 0-100): 15
phytotoxicity rating ABUTH [4, 24]: 95
phytotoxicity rating SETVI ([5]; 63 g ai/ha, rating scale 0-100): 0
phytotoxicity rating SETVI [5, 24]: 60
phytotoxicity rating ECHCG ([6]; 63 g ai/ha, rating scale 0-100): 0
phytotoxicity rating ECHCG [6, 24]: 20
phytotoxicity rating CASOB ([7]; 63 g ai/ha, rating scale 0-100): 0
phytotoxicity rating CASOB [7, 24]: 0
phytotoxicity rating IPOHE ([8]; 63 g ai/ha, rating scale 0-100): 0
phytotoxicity rating IPOHE [8, 24]: 0
phytotoxicity rating CHEAL ([9]; 63 g ai/ha, rating scale 0-100): 20
phytotoxicity rating CHEAL [9, 24]: 80
phytotoxicity rating DIGSA ([10]; 63 g ai/ha, rating scale 0-100): 0
phytotoxicity rating DIGSA [10, 24]: 50
phytotoxicity rating CORN ([11]; 63 g ai/ha): 0
phytotoxicity rating CORN ([11]; 250 g ai/ha): 5
phytotoxicity rating RICE ([12]; 63 g ai/ha): 0
phytotoxicity rating RICE ([12]; 250 g ai/ha): 15
Post-emerge Herbicidal Activity CORN (crop damage rating) ([13]; 63 g ai/ha): 5
Post-emerge Herbicidal Activity CORN (crop damage rating) ([13]; 250 g ai/ha): 5
Post-emerge Herbicidal Activity RICE (crop damage rating) ([14]; 63 g ai/ha): 0
Post-emerge Herbicidal Activity RICE (crop damage rating) ([14]; 250 g ai/ha): 5
Post-emerge Herbicidal Activity AMARE (phytotoxicity rating) ([15]; 63 g ai/ha, rating scale 0-100 (0 no damage, 100 complete death)): 30
Post-emerge Herbicidal Activity AMARE (phytotoxicity rating) [15, 24]: 50
Post-emerge Herbicidal Activity AMBEL (phytotoxicity rating) ([16]; 63 g ai/ha): 40
Post-emerge Herbicidal Activity AMBEL (phytotoxicity rating) ([16]; 250 g ai/ha): 30
Post-emerge Herbicidal Activity ABUTH (phytotoxicity rating) ([17]; 63 g ai/ha): 40
Post-emerge Herbicidal Activity ABUTH (phytotoxicity rating) ([17]; 250 g ai/ha): 60
Post-emerge Herbicidal Activity SETVI (phytotoxicity rating) ([18]; 63 g ai/ha): 0
Post-emerge Herbicidal Activity SETVI (phytotoxicity rating) ([18]; 250 g ai/ha): 0
Post-emerge Herbicidal Activity ECHCG (phytotoxicity rating) ([19]; 63 g ai/ha): 0
Post-emerge Herbicidal Activity ECHCG (phytotoxicity rating) ([19]; 250 g ai/ha): 0
Post-emerge Herbicidal Activity CASOB (phytotoxicity rating) ([20]; 63 g ai/ha): 0
Post-emerge Herbicidal Activity CASOB (phytotoxicity rating) ([20]; 250 g ai/ha): 30
Post-emerge Herbicidal Activity IPOHE (phytotoxicity rating) ([21]; 63 g ai/ha): 30
Post-emerge Herbicidal Activity IPOHE (phytotoxicity rating) ([21]; 250 g ai/ha): 50
Post-emerge Herbicidal Activity CHEAL (phytotoxicity rating) ([22]; 63 g ai/ha): 10
Post-emerge Herbicidal Activity CHEAL (phytotoxicity rating) ([22]; 250 g ai/ha): 20
Post-emerge Herbicidal Activity DIGSA (phytotoxicity rating) ([23]; 63 g ai/ha): 0
Post-emerge Herbicidal Activity DIGSA (phytotoxicity rating) ([23]; 250 g ai/ha): 0
